What was measured:
[1] = biological target: T1, human muscarinic M1 receptor (Homo sapiens, UniProt P11229); experiment: Alphascreen Surefire phospho-ERK1/2 functional assay, M1; format: cell-based; conditions: for EC50: read-out: pEC50 M1 (converted); for Emax: CHO, read-out: % Emax cf. ACh, M1, CHO cells stably expressing human M1; for Emax / % Emax cf. ACh, M1: relative to ACh
T1 sequence (P11229 1-460): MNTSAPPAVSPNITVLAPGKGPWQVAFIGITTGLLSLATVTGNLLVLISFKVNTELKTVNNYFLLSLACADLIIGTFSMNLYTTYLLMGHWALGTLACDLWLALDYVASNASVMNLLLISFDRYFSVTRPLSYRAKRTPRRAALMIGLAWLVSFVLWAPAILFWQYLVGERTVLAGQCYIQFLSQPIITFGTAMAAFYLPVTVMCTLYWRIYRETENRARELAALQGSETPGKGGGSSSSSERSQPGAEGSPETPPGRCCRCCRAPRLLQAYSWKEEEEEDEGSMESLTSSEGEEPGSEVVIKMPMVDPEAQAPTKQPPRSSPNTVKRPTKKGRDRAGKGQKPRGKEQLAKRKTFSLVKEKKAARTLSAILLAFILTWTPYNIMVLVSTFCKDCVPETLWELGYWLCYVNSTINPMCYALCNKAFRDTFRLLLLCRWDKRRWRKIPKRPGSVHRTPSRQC

[2] = biological target: T2, human muscarinic M4 receptor (Homo sapiens, UniProt P08173); experiment: Alphascreen Surefire phospho-ERK1/2 functional assay, M4; format: cell-based; conditions: for EC50 / % Emax cf. ACh, M4: CHO cells stably expressing human M4; for EC50: phospho-ERK1/2, * = variable results, read-out: pEC50 M4 (converted); for Emax: CHO, read-out: % Emax cf. ACh, M4, CHO cells stably expressing human M4; for Emax / % Emax cf. ACh, M4: relative to ACh
T2 construct: expressed in transfected cells
T2 sequence (P08173 1-479): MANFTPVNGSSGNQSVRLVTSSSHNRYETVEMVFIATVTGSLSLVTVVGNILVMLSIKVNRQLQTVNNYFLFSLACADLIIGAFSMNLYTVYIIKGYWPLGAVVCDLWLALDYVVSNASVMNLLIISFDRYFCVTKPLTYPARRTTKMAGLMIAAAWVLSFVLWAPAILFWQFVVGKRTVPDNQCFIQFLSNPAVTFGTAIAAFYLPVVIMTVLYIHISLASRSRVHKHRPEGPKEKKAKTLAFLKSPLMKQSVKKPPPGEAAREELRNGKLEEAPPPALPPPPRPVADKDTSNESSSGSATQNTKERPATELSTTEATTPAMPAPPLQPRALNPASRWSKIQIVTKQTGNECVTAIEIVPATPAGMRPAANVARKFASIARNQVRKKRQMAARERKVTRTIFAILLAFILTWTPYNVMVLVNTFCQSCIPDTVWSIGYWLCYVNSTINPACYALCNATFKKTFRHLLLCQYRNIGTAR

[3] = biological target: T3, human muscarinic M2 receptor (Homo sapiens, UniProt P08172); experiment: Alphascreen Surefire phospho-ERK1/2 functional assay, M2; conditions: for Emax: CHO, read-out: % Emax cf. ACh, M2, CHO cells stably expressing human M2; for Emax / % Emax cf. ACh, M2: relative to ACh; for pEC50 M2 / % Emax cf. ACh, M2: CHO cells stably expressing human M2; for pEC50 M2: phospho-ERK1/2, * = variable results
T3 sequence (P08172 1-466): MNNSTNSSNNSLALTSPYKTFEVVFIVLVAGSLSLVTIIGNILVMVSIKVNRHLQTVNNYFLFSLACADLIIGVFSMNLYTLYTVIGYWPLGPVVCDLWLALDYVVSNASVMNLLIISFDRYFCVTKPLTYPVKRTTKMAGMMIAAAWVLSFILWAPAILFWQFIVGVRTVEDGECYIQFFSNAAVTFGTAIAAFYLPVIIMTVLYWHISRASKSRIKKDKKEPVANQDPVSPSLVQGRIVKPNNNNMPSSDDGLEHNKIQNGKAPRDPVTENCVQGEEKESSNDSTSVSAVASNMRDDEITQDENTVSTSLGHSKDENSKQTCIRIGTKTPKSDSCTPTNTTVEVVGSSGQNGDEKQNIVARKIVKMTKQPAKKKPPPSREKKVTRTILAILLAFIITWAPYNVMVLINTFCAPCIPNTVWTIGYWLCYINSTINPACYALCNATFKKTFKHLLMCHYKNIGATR

[4] = biological target: human muscarinic M3 receptor (Homo sapiens, UniProt P20309); experiment: Alphascreen Surefire phospho-ERK1/2 functional assay, M3; conditions: for Emax: CHO, read-out: % Emax cf. ACh, M3, CHO cells stably expressing human M3; for Emax / % Emax cf. ACh, M3: relative to ACh; for EC50: pEC50 M3, CHO cells stably expressing human M3
human muscarinic M3 receptor, sequence (P20309 whole entry): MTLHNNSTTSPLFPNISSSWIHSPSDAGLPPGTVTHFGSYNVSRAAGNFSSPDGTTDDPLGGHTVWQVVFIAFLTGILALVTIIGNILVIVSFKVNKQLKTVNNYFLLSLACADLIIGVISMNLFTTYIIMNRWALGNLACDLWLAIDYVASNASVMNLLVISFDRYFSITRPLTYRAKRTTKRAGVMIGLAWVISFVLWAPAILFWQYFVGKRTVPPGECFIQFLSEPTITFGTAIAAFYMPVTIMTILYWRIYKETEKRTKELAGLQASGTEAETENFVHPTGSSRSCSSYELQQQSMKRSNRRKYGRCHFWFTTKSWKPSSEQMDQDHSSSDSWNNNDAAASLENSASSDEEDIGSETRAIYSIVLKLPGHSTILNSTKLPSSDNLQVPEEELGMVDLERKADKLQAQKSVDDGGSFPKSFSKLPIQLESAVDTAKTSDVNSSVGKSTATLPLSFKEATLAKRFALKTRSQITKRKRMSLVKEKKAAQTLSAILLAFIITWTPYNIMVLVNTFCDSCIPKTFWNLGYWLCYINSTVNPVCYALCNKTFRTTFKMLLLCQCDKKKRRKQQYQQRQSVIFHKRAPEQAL

[5] = CHO cells stably expressing human M1, phospho-ERK1/2, * = variable results
[6] = phospho-ERK1/2, * = variable results
[7] = CHO cells stably expressing human M1
[8] = CHO cells stably expressing human M3

EC50 [1, 5] | Emax [1] | EC50 [2] | Emax [2] | EC50 [3] | Emax [3] | Emax [4] | EC50 [4, 6] | % Emax cf. ACh, M1 [1, 7] | % Emax cf. ACh, M4 [2] | pEC50 M2 [3] | % Emax cf. ACh, M2 [3] | pEC50 M3 ([4]; CHO cells stably expressing human M3, phospho-ERK1/2, * = variable results) | % Emax cf. ACh, M3 [4, 8] | pEC50 M1 [1, 5] | SMILES
39.8 nM | 123% | 6.31 nM | 76% | 316 nM | 27% | 16% | > 20000 nM |  |  |  |  |  |  |  | COC(=O)N1CCC2(CC(N3CCC(n4cc(C)cn4)CC3)C2)C1 (single isomer, unassigned) [1-42 Isomer 2, methyl 2-[4-(4-methyl-1H-pyrazol-1-yl)piperidin-1-yl]-6-azaspiro[3.4]octane-6-carboxylate]
316 nM |  | 20 nM |  |  |  |  | > 20000 nM | 42% | 82% | < 4.7 | 15% |  | 9% |  | CCOC(=O)N1CCC2(CC(N3CCC(N4CC(F)(F)C[C@@H]4C(C)O)CC3)C2)C1 (single isomer, unassigned) [2-109 Isomer 4]
25.1 nM | 81% | 6.31 nM | 106% | 10000 nM | 50% | 56% | > 20000 nM |  |  |  |  |  |  |  | O=C(OCCF)N1CCC2(CC(N3CCC(c4ccc[nH]c4=O)CC3)C2)C1 (single isomer, unassigned) [3-3 Isomer 2, 2-fluoroethyl 2-[4-(2-oxo-1,2-dihydropyridin-3-yl)piperidin-1-yl]-6-azaspiro[3.4]octane-6-carboxylate]
79.4 nM | 92% | 5.01 nM | 101% |  |  |  |  |  |  |  |  |  |  |  | [2H]C([2H])([2H])C([2H])([2H])OC(=O)N1CCC2(CC(N3CCC(n4cccn4)CC3)C2)C1 (single isomer, unassigned) [1-70 Isomer 2, (^2H5)ethyl 2-[4-(1H-pyrazol-1-yl)piperidin-1-yl]-6-azaspiro[3.4]octane-6-carboxylate]
5010 nM | 62% | 251 nM | 106% |  |  |  |  |  |  |  |  |  |  |  | CCOC(=O)N1CCC2(CC(N3CCC(c4ncc(C)n4C)CC3)C2)C1 (single isomer, unassigned) [1-10 Isomer 2, ethyl 2-[4-(1,5-dimethyl-1H-imidazol-2-yl)piperidin-1-yl]-6-azaspiro[3.4]octane-6-carboxylate]

More lines, now with the values behind:

SMILES | EC50 [1, 5] | Emax [1] | EC50 [2] | Emax [2] | EC50 [3] | Emax [3] | Emax [4] | EC50 [4, 6] | % Emax cf. ACh, M1 [1, 7] | % Emax cf. ACh, M4 [2] | pEC50 M2 [3] | % Emax cf. ACh, M2 [3] | pEC50 M3 ([4]; CHO cells stably expressing human M3, phospho-ERK1/2, * = variable results) | % Emax cf. ACh, M3 [4, 8] | pEC50 M1 [1, 5]
CCOC(=O)N1CCC2(CC(N3CCC([C@@H]4CCCN4c4ccccn4)CC3)C2)C1 (single isomer, unassigned) [2-79 Isomer 2] | 501 nM | 37% | 31.6 nM | 70% | > 20000 nM | 2% | 19% | > 20000 nM |  |  |  |  |  |  | 
CCOC(=O)N1CCC2(CC(N3CCC([C@@H]4CCCN4C(=O)NCc4ccccn4)CC3)C2)C1 (single isomer, unassigned) [2-54 Isomer 2] | 50.1 nM |  | 1.26 nM |  |  |  |  |  | 86% | 134% | < 4.7 | 8% | < 4.7 | 23% | 
CCOC(=O)N1CCC2(CC(N3CCC(N4CCSCC4)CC3)C2)C1 (single isomer, unassigned) [4-12 Isomer 2, ethyl 2-[4-(thiomorpholin-4-yl)piperidin-1-yl]-6-azaspiro[3.4]octane-6-carboxylate] | > 20000 nM | 19% | 39.8 nM | 32% | > 20000 nM | 7% | 14% | > 20000 nM |  |  |  |  |  |  | 
CCOC(=O)N1CCC2(CC(N3CCC([C@@H]4CCCN4C(=O)CCN)CC3)C2)C1 (single isomer, unassigned) [2-66 Isomer 2] | 39.8 nM | 96% | 1.26 nM | 115% | > 20000 nM | 18% | 8% | > 20000 nM |  |  |  |  |  |  | 
CCOC(=O)N1CCC2(CC(N3CCC(C4c5ccccc5CN4C(=O)NC)CC3)C2)C1 (single isomer, unassigned) [2-76 Isomer 1, ethyl 2-(4-(2-(methylcarbamoyl)-isoindolin-1-yl)piperidin-1-yl)-6-azaspiro[3.4]octane-6-carboxylate] | 126 nM | 82% | 39.8 nM | 114% | > 20000 nM | 10% |  | > 20000 nM |  |  |  |  |  | 35% | 
CCOC(=O)N1CCC2(CC(N3CCC(n4cc(C)cn4)CC3)C2)C1 (single isomer, unassigned) [1-34 Isomer 1, ethyl 2-[4-(4-methyl-1H-pyrazol-1-yl)piperidin-1-yl]-6-azaspiro[3.4]octane-6-carboxylate] | 501 nM |  | 158 nM |  | > 20000 nM |  | 0% | > 20000 nM | 49% | 48% |  | 10% |  |  | 
CCOC(=O)N1CCC2(CC(N3CCC(c4nc(C(F)(F)F)cn4C)CC3)C2)C1 (single isomer, unassigned) [1-15 Isomer 2, ethyl 2-{4-[1-methyl-4-(trifluoromethyl)-1H-imidazol-2-yl]piperidin-1-yl}-6-azaspiro[3.4]octane-6-carboxylate] | 100 nM | 70% |  |  | > 20000 nM | 4% | 6% | > 20000 nM |  |  |  |  |  |  | 
CCCn1nccc1C1CCN(C2CC3(CCN(C(=O)OC)C3)C2)CC1 (single isomer, unassigned) [1-48 Isomer 2, methyl 2-[4-(1-propyl-1H-pyrazol-5-yl)piperidin-1-yl]-6-azaspiro[3.4]octane-6-carboxylate] | > 20000 nM | 63% | 631 nM | 68% |  |  |  |  |  |  |  |  |  |  | 
CCOC(=O)N1CCC2(CC(N3CCC(N4C(=O)OC[C@H]4C(C)C)CC3)C2)C1 (single isomer, unassigned) [2-120 Isomer 2] | 398 nM | 96% | 316 nM | 87% |  |  |  |  |  |  |  |  |  |  | 
CCC(=O)N1CCCC1C1CCN(C2CC3(CCN(C(=O)OC)C3)C2)CC1 (single isomer, unassigned) [2-5 Isomer 2, methyl 2-[4-(1-propanoylpyrrolidin-2-yl)piperidin-1-yl]-6-azaspiro[3.4]octane-6-carboxylate] | 6310 nM | 34% | 158 nM | 66% |  |  |  |  |  |  |  |  |  |  | 
CCOC(=O)N1CCC2(CC(N3CCC(c4ccn(C)n4)CC3)C2)C1 (single isomer, unassigned) [1-22 Isomer 2, ethyl 2-[4-(1-methyl-1H-pyrazol-3-yl)piperidin-1-yl]-6-azaspiro[3.4]octane-6-carboxylate] | 200 nM | 47% | > 20000 nM | 20% |  |  |  |  |  |  |  |  |  |  | 
CCOC(=O)N1CCC2(CC(N3CCC(c4c(C)cc[nH]c4=O)CC3)C2)C1 (single isomer, unassigned) [3-14 Isomer 2, ethyl 2-[4-(4-methyl-2-oxo-1,2-dihydropyridin-3-yl)piperidin-1-yl]-6-azaspiro[3.4]octane-6-carboxylate] |  |  | 251 nM |  |  |  |  |  | 29% | 75% |  |  |  |  | 5.5
